Data on 19 compounds can be found in PubChem BioAssay AID248 (DTP/NCI, 2004).

The structures appear in SMILES notation. Where “and” joins values, the source holds several entries; their conditions need not be identical. Equal entries are not always repeated. Toxic doses and inconclusive results are not listed.

The test system of the assay is L1210 leukemia ip in BDF1 mice, survival T/C. Nature of the assay: NCI In Vivo Anticancer Drug Screen. Data for tumor model L1210 Leukemia (intraperitoneal) in B6D2F1 (BDF1) mice. The following applies: endpoint: mean survival time, higher = longer survival. In short, it runs like this:
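Antitumor effect is assessed in tumor-bearing animals. Survival in the compound arm is compared with a vehicle-dosed control arm and expressed as their quotient.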

[1] abbreviates: dose: 50.0 mg/kg/injection, schedule: Q01DX009 (ip), vehicle: saline.
Setting [2] is: dose: 100.0 mg/kg/injection, schedule: Q01DX009 (ip), vehicle: saline.
Where [3] appears, read: dose: 100.0 mg/kg/injection, schedule: Q01DX009 (ip), vehicle: Klucel (hydroxypropylcellulose) (HPC).
The mark [4] stands for this setting: dose: 100.0 mg/kg/injection, schedule: Q04DX003 (ip), vehicle: Klucel (hydroxypropylcellulose) (HPC).
[5] abbreviates: dose: 200.0 mg/kg/injection, schedule: Q01DX009 (ip), vehicle: Klucel (hydroxypropylcellulose) (HPC).
The mark [6] stands for this setting: dose: 400.0 mg/kg/injection, schedule: Q04DX003 (ip), vehicle: Klucel (hydroxypropylcellulose) (HPC).
Setting [7] is: dose: 200.0 mg/kg/injection, schedule: Q04DX003 (ip), vehicle: Klucel (hydroxypropylcellulose) (HPC).
Setting [8] is: dose: 100.0 mg/kg/injection, schedule: Q04DX003 (ip), vehicle: saline with Tween-80.
Where [9] appears, read: dose: 200.0 mg/kg/injection, schedule: Q04DX003 (ip), vehicle: saline with Tween-80.
Setting [10] is: dose: 50.0 mg/kg/injection, schedule: Q01DX009 (ip), vehicle: Klucel (hydroxypropylcellulose) (HPC).
[11] abbreviates: dose: 400.0 mg/kg/injection, schedule: Q01DX009 (ip), vehicle: Klucel (hydroxypropylcellulose) (HPC).

Take `CCCCCCCCN(NC(=O)c1ccccc1)S(=O)(=O)c1ccccc1`: the T/C by setting is: (dose: 25.0 mg/kg/injection, schedule: Q01DX001 (ip), vehicle: carboxymethylcellulose (CMC)) 100 % of control; (dose: 25.0 mg/kg/injection, schedule: Q04DX003 (ip), vehicle: carboxymethylcellulose (CMC)) 96 % of control; (dose: 50.0 mg/kg/injection, schedule: Q01DX001 (ip), vehicle: carboxymethylcellulose (CMC)) 100 % of control; (dose: 50.0 mg/kg/injection, schedule: Q01DX009 (ip), vehicle: carboxymethylcellulose (CMC)) 97 % of control and 89 % of control; (dose: 50.0 mg/kg/injection, schedule: Q04DX002 (ip), vehicle: carboxymethylcellulose (CMC)) 100 % of control and 107 % of control; (dose: 50.0 mg/kg/injection, schedule: Q04DX003 (ip), vehicle: carboxymethylcellulose (CMC)) 96 % of control. Further, the T/C is 98 % of control (dose: 100.0 mg/kg/injection, schedule: Q01DX001 (ip), vehicle: carboxymethylcellulose (CMC)); 100 % of control and 105 % of control (dose: 100.0 mg/kg/injection, schedule: Q01DX009 (ip), vehicle: carboxymethylcellulose (CMC)); 100 % of control and 101 % of control (dose: 100.0 mg/kg/injection, schedule: Q04DX002 (ip), vehicle: carboxymethylcellulose (CMC)); 102 % of control and 103 % of control (dose: 200.0 mg/kg/injection, schedule: Q04DX002 (ip), vehicle: carboxymethylcellulose (CMC)).

Consider `O=C1NCCS1`, for which the T/C under setting [1] was 107 % of control; the T/C (dose: 100.0 mg/kg/injection, schedule: Q01DX009 (ip), vehicle: saline with Tween-80) is 107 % of control; the T/C under setting [2] is 92 % of control; the T/C (dose: 100.0 mg/kg/injection, schedule: Q04DX003 (ip), vehicle: saline sonified) was 102 % of control; the T/C (dose: 200.0 mg/kg/injection, schedule: Q01DX009 (ip), vehicle: saline with Tween-80) is 107 % of control; the T/C (dose: 200.0 mg/kg/injection, schedule: Q01DX009 (ip), vehicle: saline) is 115 % of control. Also, the T/C runs as follows: (dose: 200.0 mg/kg/injection, schedule: Q04DX003 (ip), vehicle: saline sonified) 100 % of control; (dose: 400.0 mg/kg/injection, schedule: Q01DX009 (ip), vehicle: saline with Tween-80) 96 % of control; (dose: 400.0 mg/kg/injection, schedule: Q04DX003 (ip), vehicle: saline sonified) 106 % of control.

For the compound `O=C(COc1ccc(Cl)cc1)Nc1ccc(F)cc1`, the T/C is, setting by setting: under setting [3], 98 % of control; under setting [4], 95 % of control; under setting [5], 90 % of control; under setting [6], 95 % of control.

`CC(C)(C)OC(=O)N/N=C/c1ccc2c(c1)OCO2`: the T/C is 95 % of control under setting [4], 97 % of control under setting [7] and 97 % of control under setting [6].

As to `CC(=O)Cn1c(=O)oc2ccccc2c1=O`, the T/C by setting is: (dose: 50.0 mg/kg/injection, schedule: Q04DX003 (ip), vehicle: saline with Tween-80) 102 % of control; under setting [8], 108 % of control; under setting [9], 102 % of control.

For the compound `Brc1csc2ncccc12`, the T/C under setting [10] was 102 % of control; the T/C under setting [3] was 101 % of control; the T/C under setting [4] was 97 % of control; the T/C under setting [5] was 96 % of control; the T/C under setting [7] was 100 % of control.

With `O=C1CCC2=C(CCCCCCCCCC2)N1c1ccccc1`, the T/C is 105 % of control under setting [8]; 105 % of control under setting [9]; 94 % of control (dose: 400.0 mg/kg/injection, schedule: Q04DX003 (ip), vehicle: saline with Tween-80).

On to `OCC1OC(n2cnc3c(SCc4ccccc4)ncnc32)C(O)C1O` (configuration not stated), for which the T/C was 102 % of control (dose: 38.5 mg/kg/injection, schedule: Q01DX009 (ip), vehicle: saline); 111 % of control (dose: 58.0 mg/kg/injection, schedule: Q01DX009 (ip), vehicle: carboxymethylcellulose (CMC)); 124 % of control (dose: 58.0 mg/kg/injection, schedule: Q01DX009 (ip), vehicle: saline); 124 % of control (dose: 88.0 mg/kg/injection, schedule: Q01DX009 (ip), vehicle: carboxymethylcellulose (CMC)); 152 % of control (dose: 88.0 mg/kg/injection, schedule: Q01DX009 (ip), vehicle: saline); 113 % of control (dose: 132.0 mg/kg/injection, schedule: Q01DX009 (ip), vehicle: carboxymethylcellulose (CMC)). The T/C runs as follows: (dose: 132.0 mg/kg/injection, schedule: Q01DX009 (ip), vehicle: saline) 152 % of control; (dose: 200.0 mg/kg/injection, schedule: Q01DX009 (ip), vehicle: carboxymethylcellulose (CMC)) 105 % of control.

Consider `NC(N)=NN=C(c1ccccc1)c1ccccc1`, for which the T/C (dose: 15.0 mg/kg/injection, schedule: Q01DX Z (ip), vehicle: other) is 101 % of control; the T/C (dose: 30.0 mg/kg/injection, schedule: Q01DX Z (ip), vehicle: other) was 98 % of control; the T/C (dose: 60.0 mg/kg/injection, schedule: Q01DX Z (ip), vehicle: other) is 106 % of control.

Regarding `O=C1c2cccc3cccc(c23)C(=O)N1CC1CCCO1` (configuration not stated), the T/C by setting is: under setting [3], 94 % of control; under setting [5], 94 % of control; under setting [11], 87 % of control.

For the compound `CCCCCCCCCCCCNC(=S)NCCCCCCCCCCCC`, the T/C by setting is: under setting [4], 92 % of control; under setting [7], 92 % of control; under setting [6], 89 % of control.

With `CCC1C(=O)OCc2c1cc(C(=O)OC)n(C)c2=O` (configuration not stated), the T/C is, setting by setting: (dose: 25.0 mg/kg/injection, schedule: Q01DX001 (ip), vehicle: other) 111 % of control; (dose: 50.0 mg/kg/injection, schedule: Q01DX001 (ip), vehicle: other) 108 % of control; (dose: 100.0 mg/kg/injection, schedule: Q01DX001 (ip), vehicle: other) 93 % of control; (dose: 200.0 mg/kg/injection, schedule: Q01DX001 (ip), vehicle: other) 93 % of control.

In the case of `CN(Cc1cnc2nc(NCNC(=O)C3=C(O)[C@@]4(O)C(=O)C5=C(O)c6c(O)cccc6[C@@](C)(O)[C@H]5C[C@H]4[C@H](N(C)C)C3=O)nc(N)c2n1)c1ccc(C(=O)NC(CCC(=O)O)C(=O)O)cc1` (some centres not stated), the T/C reads like this: (dose: 1.5 mg/kg/injection, schedule: Q01DX015 (ip), vehicle: saline) 213 % of control; (dose: 3.0 mg/kg/injection, schedule: Q01DX015 (ip), vehicle: saline) 219 % of control; (dose: 6.0 mg/kg/injection, schedule: Q01DX015 (ip), vehicle: saline) 163 % of control; (dose: 12.0 mg/kg/injection, schedule: Q01DX015 (ip), vehicle: saline) 107 % of control; (dose: 24.0 mg/kg/injection, schedule: Q01DX015 (ip), vehicle: saline) 87 % of control.

For the compound `NC(=S)Nc1ccccc1`, the T/C (dose: 5.0 mg/kg/injection, schedule: Q01DX001 (ip), vehicle: saline) is 100 % of control; the T/C (dose: 10.0 mg/kg/injection, schedule: Q01DX001 (ip), vehicle: saline) is 96 % of control; the T/C (dose: 20.0 mg/kg/injection, schedule: Q01DX001 (ip), vehicle: saline) was 102 % of control; the T/C (dose: 40.0 mg/kg/injection, schedule: Q01DX001 (ip), vehicle: saline) was 101 % of control; the T/C (dose: 80.0 mg/kg/injection, schedule: Q01DX001 (ip), vehicle: saline) was 97 % of control.

For `N#CCCc1ccnc2ccccc12`, the T/C (dose: 100.0 mg/kg/injection, schedule: Q04DX003 (ip), vehicle: saline) is 100 % of control; the T/C (dose: 200.0 mg/kg/injection, schedule: Q04DX003 (ip), vehicle: saline) was 102 % of control; the T/C (dose: 400.0 mg/kg/injection, schedule: Q04DX003 (ip), vehicle: saline) was 100 % of control.

Turning to `CC1CCCCN1P(N1CCCCC1C)N1CCCCC1C` (configuration not stated), the T/C is 98 % of control (dose: 100.0 mg/kg/injection, schedule: Q04DX002 (ip), vehicle: saline with Tween-80) and 98 % of control (dose: 200.0 mg/kg/injection, schedule: Q04DX002 (ip), vehicle: saline with Tween-80).

With `CN(C)c1ccc(/C=C\c2cc(=O)[nH]c3ccccc23)cc1`, the T/C is, setting by setting: under setting [10], 100 % of control; under setting [3], 102 % of control; under setting [5], 97 % of control; under setting [11], 97 % of control.

For `O=C(Nc1ccccc1C(F)(F)F)OCCOc1ccc(Cl)cc1`, the T/C by setting is: under setting [3], 98 % of control; under setting [5], 91 % of control; under setting [11], 87 % of control.

In the case of `COC(=O)CC(=O)C(Cl)C(=O)OC` (configuration not stated), the T/C reads like this: under setting [1], 97 % of control; under setting [2], 108 % of control.
